Data: patent US8546085B2, “Methods of identifying modulators of the bitter taste receptor TAS2R44” (Givaudan SA, priority 2008, dated 2013)
Read-outs that look alike come from different tables or passages of the source.

Key:
TAS2R44 = biological target: T1, TAS2R44 (Homo sapiens, UniProt P59538, L162M); assay: Fluo-4 calcium assay, antagonists of the response of TAS2R44 to steviol glycosides; assay type: cell-based
T1 construct: The full length gene of human TAS2R44 was amplified by polymerase chain reaction (PCR) using gene-specific primers that span the entire coding region; RSS tag (first 45 amino acids of rat somatostatin receptor subtype 3, plus EcoRI site) (N); expressed in transfected cells; host or cells: HEK293T/Galpha16-gustducin 44 cells, stably transfected with pcDNA3.1Zeo-TAS2R44
T1 sequence (P59538 with tags, fused parts or gaps L162M): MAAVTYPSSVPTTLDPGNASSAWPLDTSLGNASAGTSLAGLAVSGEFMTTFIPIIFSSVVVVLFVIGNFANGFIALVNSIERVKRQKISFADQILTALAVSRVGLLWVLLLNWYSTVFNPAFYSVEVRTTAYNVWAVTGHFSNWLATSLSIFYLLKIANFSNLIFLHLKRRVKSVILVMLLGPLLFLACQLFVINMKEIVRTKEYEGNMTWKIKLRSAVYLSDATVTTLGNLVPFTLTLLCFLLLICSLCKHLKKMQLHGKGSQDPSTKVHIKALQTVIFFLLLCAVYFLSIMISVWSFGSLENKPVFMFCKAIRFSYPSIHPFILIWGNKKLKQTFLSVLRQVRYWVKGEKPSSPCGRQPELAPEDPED
Procedure: All cells were HEK293T cells stably expressing Gα16-gustducin44, or expressing Gα16-gustducin44 and TAS2R44.
The method was carried out as described in example 3 subject to the following modifications:
The samples were tested with and without candidate bitter blocker and the signals were compared. The candidate bitter blocker was dissolved in dimethylsulfoxide (DMSO), and a negative control with equivalent DMSO concentration (0.02%) was performed accordingly to exclude a potential inhibitory effect of the solvent. Furthermore, a control with the relevant steviol glycoside and DMSO (0.02%) was performed accordingly (see table in example 5).
All data was calculated as ΔF/F0 and the standard deviation (STD) is indicated in each table, see results for the identified bitter blocker 4-(2,2,3-trimethyl-cyclopentyl)-butanoic acid below.

[1] = tested on: bitter taste/aftertaste of Rebaudioside A; assay: Sensory evaluation of bitter blocking by 8 bitter-sensitive panelists; assay type: in vivo, human
Procedure: 4-(2,2,3-trimethyl-cyclopentyl)-butanoic acid was sensorically evaluated for its bitter blocking characteristics by 8 bitter-sensitive panelists.
The following samples in water were evaluated and compared in their bitter taste/aftertaste: • Rebaudioside A (60 ppm) with bitter blocker (10 ppm) • Rebaudioside A (60 ppm) without bitter blocker • Rebaudioside A (230 ppm, isosweet to 7% sugar in water) • Rebaudioside A (230 ppm) with bitter blocker (10 ppm 30 ppm and 50 ppm)
20 ml of each sample was presented in random order.

CC1CCC(CCCC(=O)O)C1(C)C (centres unmarked) [4-(2,2,3-trimethyl-cyclopentyl)-butanoic acid]
TAS2R44 ΔF/F0 (TAS2R44; 0.7 mM rebaudioside A (EC50) + bitter blocker 0.098 μM): 0.4022
TAS2R44 ΔF/F0 (TAS2R44; 0.7 mM rebaudioside A (EC50) + bitter blocker 0.195 μM): 0.3678
TAS2R44 ΔF/F0 (TAS2R44; 0.7 mM rebaudioside A (EC50) + bitter blocker 0.391 μM): 0.2825
TAS2R44 ΔF/F0 (TAS2R44; 0.7 mM rebaudioside A (EC50) + bitter blocker 0.781 μM): 0.2156
TAS2R44 ΔF/F0 (TAS2R44; 0.7 mM rebaudioside A (EC50) + bitter blocker 1.563 μM): 0.1328
TAS2R44 ΔF/F0 (TAS2R44; 0.7 mM rebaudioside A (EC50) + bitter blocker 3.125 μM): 0.1225
TAS2R44 ΔF/F0 (TAS2R44; 0.7 mM rebaudioside A (EC50) + bitter blocker 6.250 μM): 0.1794
TAS2R44 ΔF/F0 (TAS2R44; 0.7 mM rebaudioside A (EC50) + bitter blocker 12.50 μM): 0.2056
TAS2R44 ΔF/F0 (TAS2R44; 0.7 mM rebaudioside A (EC50) + bitter blocker 25.00 μM): 0.2275
TAS2R44 ΔF/F0 (TAS2R44; 0.7 mM rebaudioside A (EC50) + bitter blocker 50.00 μM): 0.2347
TAS2R44 ΔF/F0 (TAS2R44; 0.7 mM rebaudioside A (EC50) + bitter blocker 100.0 μM): 0.2238
TAS2R44 ΔF/F0 (TAS2R44; 2.2 mM stevioside (EC50) + bitter blocker 0.098 μM): 0.665
TAS2R44 ΔF/F0 (TAS2R44; 2.2 mM stevioside (EC50) + bitter blocker 0.195 μM): 0.596
TAS2R44 ΔF/F0 (TAS2R44; 2.2 mM stevioside (EC50) + bitter blocker 0.391 μM): 0.555
TAS2R44 ΔF/F0 (TAS2R44; 2.2 mM stevioside (EC50) + bitter blocker 0.781 μM): 0.491
TAS2R44 ΔF/F0 (TAS2R44; 2.2 mM stevioside (EC50) + bitter blocker 1.563 μM): 0.431
TAS2R44 ΔF/F0 (TAS2R44; 2.2 mM stevioside (EC50) + bitter blocker 3.125 μM): 0.430
TAS2R44 ΔF/F0 (TAS2R44; 2.2 mM stevioside (EC50) + bitter blocker 6.250 μM): 0.328
TAS2R44 ΔF/F0 (TAS2R44; 2.2 mM stevioside (EC50) + bitter blocker 12.50 μM): 0.293
TAS2R44 ΔF/F0 (TAS2R44; 2.2 mM stevioside (EC50) + bitter blocker 25.00 μM): 0.252
TAS2R44 ΔF/F0 (TAS2R44; 2.2 mM stevioside (EC50) + bitter blocker 50.00 μM): 0.238
TAS2R44 ΔF/F0 (TAS2R44; 2.2 mM stevioside (EC50) + bitter blocker 100.0 μM): 0.212
IC50 (TAS2R44; inhibition of the response to 0.7 mM rebaudioside A, read-out: IC50 concentration for rebaudioside): 357 nM
IC50 (TAS2R44; inhibition of the response to 2.2 mM stevioside, read-out: IC50 concentration for stevioside): 578 nM
effect on bitterness of Rebaudioside A ([1]; 10 ppm bitter blocker, in water): blocked the upfront bitterness but some lingering bitterness/aftertaste remained
effect on bitterness of Rebaudioside A ([1]; 30 ppm bitter blocker, Rebaudioside A 230 ppm in water): improved effect to reduce the lingering bitterness/bitter aftertaste
effect on bitterness of Rebaudioside A ([1]; 50 ppm bitter blocker, Rebaudioside A 230 ppm in water): improved effect to reduce the lingering bitterness/bitter aftertaste
effect on bitterness of Rebaudioside A ([1]; 60 ppm, in water): completely blocked the bitterness including the bitter aftertaste
effect on bitter taste/aftertaste of Rebaudioside A ([1]; all panelists, samples in water): blocked or significantly reduced the bitter taste/aftertaste
